Results on 1 molecule are retold here after US20250325467A1, “COMPOSITIONS FOR PREVENTING OR TREATING SKIN AGING” (ESTETRA SRL, priority 2021, published 2025).

“Also recorded” adds a separate entry of the source.

For data set [1] the following is noted: female, Lister Hooded, rat, in vivo, 0.5 h.
Procedure: Tissue distribution was determined in female rats (partially pigmented and non-pigmented) using [^14C]-estetrol.
A group of six female Lister Hooded rats each received a single oral dose of [^14C]-estetrol. At each selected time (see below) one animal was killed (by overdose of CO2) followed by immediate snap freezing in hexane/solid CO2. The carcasses were retained for examination of the tissue distribution of radioactivity using the technique of quantitative whole body autoradiography (QWBA).
Times for analysis were: (0.5, 8, and 24 hours, 7, 14 and 35 days)
Frozen carcasses were subjected to whole-body autoradiography.
Where concentrations are reported, radioactivity was assumed to be associated with [^14C]-estetrol or any metabolic products derived from [^14C]-estetrol. The specific activities of the dosed test compounds were used for the calculation of concentrations in all cases. Recoveries of radioactivity are reported as percentage of administered radioactivity (% dose). Radioactivity concentrations are also reported as pg equivalents/g.
For data set [2], the system named is Normal Human Dermal Fibroblasts (NHDFs). The data set can be described thus: Colonization of a standard acellular area (IBIDI chamber gap closure) by fibroblasts. Particulars: vs ethanol control; for NHDF Migration (+MMC) (colonization of the acellular area): presence of MMC, 6 h and 24 h. The class given is cell-based. The protocol: The study consists in an in vitro assay aiming to evaluate the properties of E4 and E2 at 4 concentrations each on keratinocytes and fibroblasts. In this assay, the measurement of the colonization of a standard acellular surface generated from a confluent monolayer of cells using a dedicated culture device (IBIDI chamber) is performed. The assay is performed in absence and in presence of a proliferation inhibitor to focus on cell proliferation and migration or on migration only, respectively.
Normal Human forskin-derived Dermal Fibroblats (NHDFs, ATCC) cells were grown in phenol-free Dulbecco's Modified Eagle Medium (DMEM, ThermoFisher Scientific) supplemented with 10% of Foetal Bovine Serum (FBS, ThermoFisher Scientific), L-glutamine and antibiotics. The cells were maintained in a humidified incubator at 37° C. with a 5% CO2 atmosphere.
Cells were plated in 2-well silicone inserts with a defined cell free gap (IBIDI chambers; IBIDI GmbH, 80209) that was previously inserted on 12-well culture plates. This culture device allows to create a standardized 500 μm±100 μm cell free gap for monitoring cell colonization. 24 h after seeding, when the culture reached high confluency, cells in the insert were treated, or not, with mitomycin C (MMC) at 10 μg/ml during 2 h. After these 2 hours, the insert was removed, and cells were treated with E2 or E4 in presence or not of MMC for additional 2 h. Then, if appropriate, the culture medium was removed and cells were treated with E2 or E4 for 22 h, in absence of MMC.
For the assay, keratinocytes were plated in Epilife medium without HKGS and all the treatments were performed in this medium. Fibroblasts were plated in DMEM medium containing only 2,5% of FBS and the treatments were performed in absence of FBS.
E2 and E4 were applied at 4 concentrations each (10^−7M, 10^−8M, 10^−9M, 10^−10M). In parallel, cells were treated with a positive control (HKGS 1% for human keratinocytes and PDGF-BB at 10 ng/ml for human fibroblasts).
To monitor cell colonization and to evaluate the gap closure rate, pictures of the gap were taken after different times: at time 0 h, corresponding to the beginning of the treatment with E2 or E4 and to the removal of the culture insert, at time 6 h and at time 24 h (corresponding to the end of the treatments with E2 or E4). Pictures were taken with a microscope Zeiss (Axiover 25-10× objective) and with a camera Invenio2EIII (DeltaPix—Lux-Optic). The colonized areas were quantified from the pictures by the use of the WimAsis platform—WimScratch software. For each insert, 3 pictures were taken at each time. As each condition was performed in triplicates, it means a total of 9 pictures per condition and per time point of acquisition

Data set [3] has as its system mouse lymphoma cell line L5178Y TK^+/−. The data set can be described thus: Generation of reactive oxygen species (ROS) in mouse lymphoma cells. Particulars: test item 1 to 3000 μM; 3 h exposure; vs vehicle control; three experiments. The data set is classed as cell-based. How it is done:
The objective of the study was to investigate the generation of reactive oxygen species (ROS) induced by the test item, estetrol (E4), in a mouse lymphoma cell line L5178Y TK^+/−.
L5178Y TK^+/− cells in logarithmic phase of growth were plated in black 96 well cell culture plates at 1×10^4 cells in 90 μL of cell culture media. Controls and test item in triplicate were applied to the cells as a 10× concentrate in 10 μL of a 10% ethanol solution in PBS (final concentration of ethanol on plate was 1%). Cells were incubated for 3 hours at 37° C., 5% CO2, and the generation of ROS was evaluated by fluorescence with a ROS reagent: the ROS reagent was freshly prepared by dissolving one ampoule of reagent (50 μg) in 70 μL DMSO and further diluting this with 2.1 mL of pre-warmed PBS. 10 μL of ROS reagent was added to each well and the plate were shaken for 30 seconds in the dark. The plates were incubated approximately at 37° C., 5% CO2 for 1 h 30 min and fluorescence was read on a plate scanner with excitation at 492 nm and emission at 520 nm.

Another data set concerns human monocytes. As to the kind of experiment: Immune cell polarization (qPCR of M1/M2 markers), human monocytes. The class given is cell-based. Conditions: activated human monocytes; qPCR markers NOS2, ARG1. The protocol:
(§1) Immune cell polarization was evaluated in vitro using markers for M1/TH-1 (NOS2) and M2/TH-2 (ARG1) phenotype with human monocytes and mouse monocytes (BMDM bone marrow derived monocytes).
Human blood was collected under national ethical approval with full informed written patient consent. Freshly isolated human blood was collected in EDTA vacutainer tubes, diluted 1:1 in PBS and gently layered onto histopaque (Merck). Tubes were immediately centrifuged at 100×g for 30 minutes and the whitish buffy layer formed at the histopaque interface aspirated and washed (centrifuged 100×g, 10 minutes) twice with sterile PBS. Untouched classical (CD14++, CD16−) monocytes were isolated from the washed buffy layer cells using the Miltenyi Classical Monocyte Isolation Kit, LS columns and a MidiMACs separator (Miltenyi). Isolated cells were seeded into tissue culture plates and stimulated to differentiate using PMA.
(§2) An experiment was conducted to evaluate the anti-inflammatory effects of E4 or vehicle (negative control). qPCR methodology was used to assess the effects of E2 and E4 on immune cell polarization using well validated marker of pro-inflammatory (NOS2 for MI/TH-1 phenotype) and anti-inflammatory (ARG1 for ME/TH-2 phenotype) activity.

For data set [4] the following is noted: in humans; unlike other estrogens; cited from earlier work.
For data set [5], the system named is mouse BMDM (bone marrow derived monocytes). As to the kind of experiment: Immune cell polarization (qPCR of M1/M2 markers), mouse BMDM. Particulars: activated mouse BMDM; qPCR markers NOS2, ARG1. The data set is classed as cell-based. The protocol: as §1, §2
For data set [6], the system named is primary human dermal fibroblasts. As to the kind of experiment: Fibroblast monolayer scratch assay, human fibroblasts. The data set is classed as cell-based. Conditions: human fibroblasts from three female donors; 10^−10M to 10^−6 M; pilot experiments. The protocol: Human skin was transferred to the laboratory in holding media (DMEM containing 4% penicillin-streptomycin and Amphotericin B solution) within 30 minutes of collection. Once defatted, the skin was rinsed in HBSS with 4% PSA followed by DPBS without antibiotics, then cut into thin strips and floated on 0.2% Dispase II in DPBS overnight at 4° C., followed by manual separation of the epidermis from the dermis. Primary human epidermal keratinocytes and primary human dermal fibroblasts were then isolated.
Confluent wells of both primary keratinocytes and fibroblasts were subjected to a highly validated scratch wounding procedure (using a 1 mL sterile filter tip). Post-scratching, cells were rinsed with DPBS and cell-specific media containing treatments added to each well. Cells were imaged on a ptychographic live cell imaging platform (Livecyte 2™, Phasefocus) for 24-48 hours. Automated tracking of individual unlabeled cells will be combined with 3D cell measurements to quantify a range of wound-relevant cell parameters including scratch closure rate.
Dose range finding experiments were conducted with E4 (10^−10M to 10^−6M) and E2 with and without Mitomycin C (MMC, to inhibit proliferation) using vehicle as negative controls.

Take `C[C@]12CC[C@@H]3c4ccc(O)cc4CC[C@H]3[C@@H]1[C@@H](O)[C@@H](O)[C@@H]2O` [E4, 1,3,5 (10)-estratrien-3,15alpha,16alpha,17beta-tetrol]: the “radioactivity based on total dose/tissue, non-pigmented skin” value in data set [1] is on record as 1.1%. Besides, the “radioactivity based on total dose/tissue, pigmented skin” value in data set [1] came to 1.7%. Further, the “NHDF Migration (+MMC) (colonization of the acellular area)” value in data set [2] (10^−7M) and in data set [2] (10^−8M) was “significantly increase the colonization of the acellular area; also recorded: significant activity” in each case. In data set [2] (absence of MMC, all four concentrations (10^−7M to 10^−10M)), the “colonization of the cell-free area by NHDF, overall” value is given as “not able to significantly increase the colonization of the cell-free area”. Besides, the “levels of ROS” value in data set [3] is “dose-dependent decrease in the levels of ROS”. Moreover, the “immune cell polarization (monocyte subtype M1/M2)” value (in the data set on human monocytes; in data set [5]) was “switch from monocyte subtype M1 (pro-inflammatory) to subtype M2 (healing)” each time. For the same molecule, in data set [4], the “impact on lipid and triglyceride level” value was “very limited impact on lipid and triglyceride level”. Also, the “fibroblast migration / in vitro wound closure” value in data set [6] was “promotes in vitro wound closure to a similar extent as E2; also recorded: as effective as E2 in promoting fibroblast migration”.
